In brackets after ≈: the same amount, converted by molar mass. Like-named read-outs stand apart in the source and are kept apart here.
Key:
Toxoplasma gondii RH-GFP = test: In vitro growth inhibition assay (RH-GFP fluorescence in infected HFF cells); assay type: cell-based; conditions: for inhibition at 50 µg/mL / IC50: Toxoplasma gondii; for inhibition at 50 µg/mL: HFF, read-out: % Parasite inhibition (mean ± s.d.); for IC50: read-out: IC50 (anti-toxoplasmosis activity)
Description: Briefly, HFF cells were seeded into 96-well plates (1 × 10^4 cells/well) and cultured for 48 h. Expressing green fluorescent protein (GFP) type I strain RH (RH-GFP) tachyzoites (Nishikawa et al. [2003]) were added to the wells (5 × 10^4 tachyzoites/well). After a 4-h incubation, extracellular parasites were removed by washing. Then, chemical compounds at a final concentration of 50 µg/mL were added. […] After a 72-h incubation, the fluorescence intensity of RH-GFP was measured to determine the parasite growth. Compounds with parasite inhibition ≥ 80% were further screened for dose–response effects at final concentrations of 3.125 µg/mL, 6.25 µg/mL, 12.5 µg/mL, 25 µg/mL and 50 µg/mL.

[1] = Cytotoxicity analysis on HFF cells (CCK-8); assay type: cell-based, human; conditions: human, human foreskin fibroblasts (HFF) cells; test compounds at 50 µg/mL
Description: (§1) The cytotoxicity of the chemical compounds on human foreskin fibroblasts (HFF) cells was determined by using the cell counting kit-8 (CCK-8) (Dojindo Molecular Technologies, Inc. Japan) according to the manufacturer’s instructions. The compounds were dissolved in dimethyl sulfoxide (DMSO). HFF cells were plated in 96-well plates at a density of 1 × 10^4 cells per well. After a 48-h incubation at 37 °C in a 5% CO2 atmosphere, cells were exposed to various concentrations of tested chemical compounds (1 µg/mL, 5 µg/mL, 10 µg/mL, 25 µg/mL, 50 µg/mL and 100 µg/mL). Culture medium containing the same volume of DMSO was used as a negative control. After 24 h, the surviving cells were determined by adding CCK-8 reagent. Cell viability was measured based on the absorbance at 450 nm after an additional 4-h incubation.

Vero cell viability = assay type: cell-based; conditions: African green monkey, Vero cells; test compounds at 100 µg/mL
Source text: (§2) TABLE 2 Screening of chemical compounds for anti-RH-GFP efficacy. | column: % viability Vero ^¶

[2] = tested on: Toxoplasma gondii RH-GFP tachyzoites; assay type: cell-based; conditions: for Activity against extracellular and intracellular parasites: invasion and replication tests, FJS-302 10 µg/mL, FJS-303 and FJS-403 12.5 µg/mL, SFZ 1 mg/mL; for Infection rate (SAG1-positive Vero cells per 100 Vero cells): non-treated 11.3% ± 0.6%
Description: Vero cells were seeded on 12-well plates as described here, and purified RH-GFP tachyzoites were treated with FJS-302, FJS-303, FJS-403 or FJS-INH for 1 h at 37 °C. Then treated parasites were added to Vero cells in a 12-well plate (2 × 10^5 tachyzoites per well). At 2 h postinfection, the extracellular parasites were removed by washing, and the infected Vero cells were further incubated for 24 h at 37 °C in a 5% CO2 incubator. After incubation, IFAT was conducted as described here to evaluate the effects of the chemical compounds on parasite invasion. The infection rates were calculated as follows: [number of SAG1-positive Vero cells]/[100 randomly selected Vero cells]×100 [Eqn 1]
In addition, at least 10 fields were observed per group to measure the average number of parasites per field.

[3] = tested on: human foreskin fibroblasts (HFF) cells; test: Cytotoxicity analysis on HFF cells (CCK-8); assay type: cell-based; conditions: for Effect on host cell viability / growth: HFF cells, 0-100 µg/mL, 24 h
Description: as §1

[4] = tested on: Toxoplasma gondii PruΔku80Δhxgprt; test: Bradyzoite differentiation assay (Vero cells, IFAT); assay type: cell-based; conditions: 48 h; for Antitachyzoite activity: PruΔku80Δhxgprt; for Bradyzoite number: compounds 50 µg/mL (Figure 4 legend)
Description: Vero cells were plated in 12-well plates at a density of 1 × 10^5 cells per well and incubated for 24 h at 37 °C in a 5% CO2 atmosphere. Then, purified PruΔku80Δhxgprt tachyzoites were added to Vero cells at 1 mL/well (parasites per host cell ratio = 1:1). Two hours postinfection, chemical compounds were added in EMEM supplemented with 8% FBS. Indirect fluorescent antibody test was conducted after a 48-h incubation. Tachyzoites were stained by using anti-SAG1 mouse polyclonal antibody (Guo et al. [2019]), and bradyzoites were detected by using anti-GFP rabbit polyclonal antibody (Medical & Biological Laboratories CO., LDT, Japan). Secondary antibody Alexa Fluor 594-conjugated goat anti-mouse IgG (Invitrogen, United States) diluted 1:1000 and Alexa Fluor 488-conjugated goat anti-Rabbit IgG (Invitrogen, United States) diluted 1:1000 were used. Five fields per well were observed by using an All-in-one Fluorescence Microscope (BZ-9000, Keyence, Japan), and the percentage of bradyzoites was calculated.

[5] = tested on: Toxoplasma gondii RH strain; conditions: ref De Oliveira et al. [2009]; cited from earlier work
HFF cells = conditions: 200 µg/mL of SFZ; ref De Oliveira et al. [2009]; cited from earlier work
Vero cells = test: Vero cell viability; assay type: cell-based; conditions: sulphadiazine at 1 mg/mL
Source text: as §2

[6] = 72 h, test compounds at 50 µg/mL, 72 h, RH-GFP-infected HFF cells
[7] = RH-GFP-infected HFF cells, 72 h, 3.125-50 µg/mL
[8] = test compounds at 50 µg/mL, 72 h, RH-GFP-infected HFF cells
[9] = parasites pretreated with 12.5 µg/mL
[10] = parasites pretreated with 12.5 µg/mL for 1 h

Work on CCCCCCCCCCc1cn(Cc2ccc(Br)cc2)nn1 [FJS-104] yielded an inhibition at 50 µg/mL (Toxoplasma gondii RH-GFP; [6]) of 62.2 ± 6%, a viability at 24 h, 50 µg/mL [1] of 100% and a viability at 100 µg/mL (Vero cell viability) of 103%.

Brc1ccc(Cn2cc(CSc3ccccc3)nn2)cc1 [FJS-105] showed an inhibition at 50 µg/mL (Toxoplasma gondii RH-GFP; [6]) of 60.5 ± 6.1%, a viability at 24 h, 50 µg/mL [1] of 100% and a viability at 100 µg/mL (Vero cell viability) of 103%.

Compound CCCCc1cn(Cc2ccccc2)nn1 [FJS-201] has an inhibition at 50 µg/mL (Toxoplasma gondii RH-GFP; [6]) of 64.6 ± 6.8%, a viability at 24 h, 50 µg/mL [1] of 100% and a viability at 100 µg/mL (Vero cell viability) of 99.3%.

In the case of c1ccc(Cn2cc(CSc3ccccc3)nn2)cc1 [FJS-205], the inhibition at 50 µg/mL (Toxoplasma gondii RH-GFP; [6]) is reported as 60.2 ± 5.1%, the viability at 24 h, 50 µg/mL [1] is reported as 100% and the viability at 100 µg/mL (Vero cell viability) is reported as 101%.

In the case of CCCCc1cn(Cc2ccc(C)cc2)nn1 [FJS-301], the inhibition at 50 µg/mL (Toxoplasma gondii RH-GFP; [6]) is reported as 57.7 ± 3%, the viability at 24 h, 50 µg/mL [1] is reported as 96.2% and the viability at 100 µg/mL (Vero cell viability) is reported as 85.4%.

With CCCCCCc1cn(Cc2ccc(C)cc2)nn1 [FJS-302] the inhibition at 50 µg/mL (Toxoplasma gondii RH-GFP; [6]) was greater than 80%, the IC50 (Toxoplasma gondii RH-GFP; [7]) was 5.6 µg/mL (≈ 21.8 µM) and the “% Parasite inhibition (mean ± s.d.)” value (Toxoplasma gondii RH-GFP; [8]) was 95.9 ± 4.6%. For the same compound, the “Activity against extracellular and intracellular parasites” value [2] was “effective against extra- and intracellular parasites”, the “Number of parasites per field after pretreatment” value (“Number of parasites per field” for short) ([2]; parasites pretreated with 10 µg/mL) was “significantly reduced” and the “Infection rate (SAG1-positive Vero cells per 100 Vero cells)” value ([2]; parasites pretreated with 10 µg/mL for 1 h) was 6.2% ± 0.5%. For the same compound, the viability at 24 h, 50 µg/mL [1] was 85%, the “Effect on host cell viability / growth” value [3] was “no significant suppression on host cell growth” and the Antitachyzoite activity [4] was “significant antitachyzoite activity”. The “Bradyzoite number” value [4] was “did not increase the bradyzoite number” and the viability at 100 µg/mL (Vero cell viability) was 86.1%.

With CCCCCCCCc1cn(Cc2ccc(C)cc2)nn1 [FJS-303] the inhibition at 50 µg/mL (Toxoplasma gondii RH-GFP; [6]) was greater than 80%, the IC50 (Toxoplasma gondii RH-GFP; [7]) was 6.8 µg/mL (≈ 23.8 µM) and the “% Parasite inhibition (mean ± s.d.)” value (Toxoplasma gondii RH-GFP; [8]) was 96.3 ± 3.9%. For the same compound, the “Activity against extracellular and intracellular parasites” value [2] was “effective against extra- and intracellular parasites”, the “Number of parasites per field” value [2, 9] was “significantly reduced” and the “Infection rate (SAG1-positive Vero cells per 100 Vero cells)” value [2, 10] was 5.8% ± 0.5%. For the same compound, the viability at 24 h, 50 µg/mL [1] was 110%, the “Effect on host cell viability / growth” value [3] was “no significant suppression on host cell growth” and the Antitachyzoite activity [4] was “significant antitachyzoite activity”. For the same compound, the “Bradyzoite number” value [4] was “did not increase the bradyzoite number” and the viability at 100 µg/mL (Vero cell viability) was 101%.

With CCCCCCCCc1cn(Cc2ccc(C(F)(F)F)cc2)nn1 [FJS-403] the inhibition at 50 µg/mL (Toxoplasma gondii RH-GFP; [6]) was greater than 80%, the IC50 (Toxoplasma gondii RH-GFP; [7]) was 7 µg/mL (≈ 20.6 µM) and the “% Parasite inhibition (mean ± s.d.)” value (Toxoplasma gondii RH-GFP; [8]) was 91.5 ± 1.7%. For the same compound, the “Activity against extracellular and intracellular parasites” value [2] was “effective against extra- and intracellular parasites”, the “Number of parasites per field” value [2, 9] was “significantly reduced” and the “Infection rate (SAG1-positive Vero cells per 100 Vero cells)” value [2, 10] was 5.2% ± 0.7%. For the same compound, the viability at 24 h, 50 µg/mL [1] was 103%, the “Effect on host cell viability / growth” value [3] was “no significant suppression on host cell growth” and the Antitachyzoite activity [4] was “significant antitachyzoite activity”. For the same compound, the “Bradyzoite number” value [4] was “did not increase the bradyzoite number” and the viability at 100 µg/mL (Vero cell viability) was 102%.

Compound CCCCCCCCCCc1cn(Cc2ccc(C(F)(F)F)cc2)nn1 [FJS-404] has an inhibition at 50 µg/mL (Toxoplasma gondii RH-GFP; [6]) of 64.5 ± 1.8% and a viability at 24 h, 50 µg/mL [1] of 100%.

Compound FC(F)(F)c1ccc(Cn2cc(CSc3ccccc3)nn2)cc1 [FJS-405] has an inhibition at 50 µg/mL (Toxoplasma gondii RH-GFP; [6]) of 35 ± 5%, a viability at 24 h, 50 µg/mL [1] of 100% and a viability at 100 µg/mL (Vero cell viability) of 103%.

In the case of NNC(=O)c1ccncc1 [FJS-INH, isoniazid, reference compound], the “Potency relative to the leading BnTz derivative” value (Toxoplasma gondii RH-GFP; T. gondii growth inhibition, from IC50) is reported as “threefold less potent”, the inhibition at 50 µg/mL (Toxoplasma gondii RH-GFP; [6]) is reported as greater than 80% and the IC50 (Toxoplasma gondii RH-GFP; [7]) is reported as 19.8 µg/mL (≈ 144 µM). The “% Parasite inhibition (mean ± s.d.)” value (Toxoplasma gondii RH-GFP; [8]) was 87.2 ± 4.6%, the “Infection rate (SAG1-positive Vero cells per 100 Vero cells)” value ([2]; parasites pretreated with 50 µg/mL for 1 h) was 10.7% ± 0.5% and the viability at 24 h, 50 µg/mL [1] was 118%. The “Effect on host cell viability / growth” value [3] was “no significant suppression on host cell growth”, the Antitachyzoite activity [4] was “significant antitachyzoite activity” and the viability at 100 µg/mL (Vero cell viability) was 98%.

For Nc1ccc(S(=O)(=O)Nc2ncccn2)cc1 [SFZ, sulphadiazine, reference compound], the “IC50 (anti-toxoplasmosis activity)” value (Toxoplasma gondii RH-GFP; [7]) was 59.5 µg/mL (≈ 238 µM), the “% Parasite inhibition (mean ± s.d.)” value (Toxoplasma gondii RH-GFP; sulphadiazine at 1 mg/mL, 72 h, RH-GFP-infected HFF cells) was 73.7 ± 4.6% and the “Activity against extracellular and intracellular parasites” value [2] was “affected only intracellular parasite”. For the same compound, the “Infection rate (SAG1-positive Vero cells per 100 Vero cells)” value ([2]; parasites pretreated with 1 mg/mL for 1 h) was 11.7% ± 1.3%, the “% viability HFF” value ([3]; sulphadiazine at 1 mg/mL) was 105.19% and the “Bradyzoite number (GFP-positive parasitophorous vacuoles per field)” value ([4]; SFZ 1 mg/mL, no treatment 6.5 ± 1.5) was 23.7 ± 6.0. The “Bradyzoite rate (bradyzoite differentiation)” value ([4]; SFZ 1 mg/mL, no treatment 8.2% ± 1.9%) was 46.6% ± 7.9%, the “IC50 of SFZ on RH strain” value [5] was 70 µg/mL and the “Decrease of viability of HFF cells” value (HFF cells) was 28%. For the same compound, the “% viability Vero” value (Vero cells) was 92.11%.

From PMC8252180, “In vitro anti-Toxoplasma gondii efficacy of synthesised benzyltriazole derivatives” (The Onderstepoort Journal of Veterinary Research, 2021)
